Experimental data as given in patent US11214803B2, “Modulators of YAP1 expression” (Ionis Pharmaceuticals, Inc., priority 2019, dated 2022).
Marks after values point to notes of the source that are not given here. Strand notation (5' to 3'): a small letter for the sugar, then the base; units joined by * are phosphorothioate-linked, units joined directly phosphodiester-linked; [ ] holds rarer units or linkages, { } end groups; capitals alone tell only the bases. k = constrained ethyl (cEt); [5mC] = 5-methylcytosine; d = 2'-deoxy (DNA)

The substances below were run on Yap1 mRNA (assay: Antisense inhibition of human Yap1 in A-431 cells by cEt gapmers, single dose (Example 2, RTS4814)). Conditions: A-431 cells, 5,000 cells per well, free uptake, 2,000 nM modified oligonucleotide, approx. 48 hours, RTS4814, normalized to RIBOGREEN; Table 4; asterisk (*) = targets amplicon region of primer probe set.
Format: cell-based
How it was run: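 Free uptake, 2,000 nM, ~48 h, A-431 at 5,000 cells/well. Readout: RT-qPCR (RTS4814), RIBOGREEN-normalized, % UTC. 16-mer 3-10-3 cEt gapmers, full PS backbone, all C as 5-methylcytosine.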

Row | Substance | YAP1 (% UTC)
1 | 716463 (kG*kA*k[5mC]*dT*dG*d[5mC]*d[5mC]*d[5mC]*d[5mC]*dA*dA*d[5mC]*d[5mC]*kA*kG*kA; antisense) [Compound 716463] | 64
2 | 716367 (k[5mC]*kA*kT*dG*dG*dG*d[5mC]*dA*d[5mC]*dG*dG*dT*d[5mC]*kT*kG*kG; antisense) [Compound 716367] | 70
3 | 716382 (kA*kG*k[5mC]*dA*dT*dG*dG*d[5mC]*d[5mC]*dT*dT*d[5mC]*d[5mC]*kT*kG*kG; antisense) [Compound 716382] | 73

Same assay, conditions: Table 5; A-431 cells, 5,000 cells per well, free uptake, 2,000 nM modified oligonucleotide, approx. 48 hours; RTS4814; normalized to RIBOGREEN; Yap1 mRNA relative to untreated control cells

Row | Substance | YAP1 (% UTC)
4 | 716467 (k[5mC]*k[5mC]*kG*dT*dA*dT*dG*d[5mC]*d[5mC]*d[5mC]*dA*dG*dA*kG*kG*kG; antisense) [Compound 716467] | 99
5 | 716419 (kT*kT*kT*d[5mC]*d[5mC]*dG*dG*dT*dG*d[5mC]*dA*dT*dG*kT*kG*kT; antisense) [Compound 716419] | 36

Same assay, conditions: Table 6; A-431 cells, 5,000 cells per well, free uptake, 2,000 nM modified oligonucleotide, approx. 48 hours; RTS4814; normalized to RIBOGREEN; Yap1 mRNA relative to untreated control cells

Row | Substance | YAP1 (% UTC)
6 | 716432 (kT*k[5mC]*kT*dG*dA*dG*dT*dA*dT*dT*dT*dA*dG*kT*kT*kA; antisense) [Compound 716432] | 30

Same assay, conditions: Table 18; A-431 cells, 5,000 cells per well, free uptake, 2,000 nM modified oligonucleotide, approx. 48 hours; RTS4814; normalized to RIBOGREEN; Yap1 mRNA as percent of untreated control

Row | Substance | YAP1 (% UTC)
7 | 1075556 (kT*kG*kG*d[5mC]*dA*dA*dA*dA*dG*dA*dG*dT*dG*kG*kT*kG; antisense) [Compound 1075556] | 68
8 | 1075044 (antisense kA*kA*kT*dT*dA*dG*dA*d[5mC]*dT*d[5mC]*d[5mC]*d[5mC]*d[5mC]*k[5mC]*kA*kA) [Compound 1075044] | 58
9 | 1076196 (kT*kA*kT*d[5mC]*dA*dA*dG*dG*dG*dA*dA*dT*dT*kA*kT*kT; antisense) [Compound 1076196] | 113

Same assay, conditions: Table 19; A-431 cells, 5,000 cells per well, free uptake, 2,000 nM modified oligonucleotide, approx. 48 hours; RTS4814; normalized to RIBOGREEN; Yap1 mRNA as percent of untreated control

Row | Substance | YAP1 (% UTC)
10 | 1076421 (kA*kA*kT*dT*dA*dT*dG*dA*d[5mC]*d[5mC]*dT*d[5mC]*d[5mC]*kA*kT*kG; antisense) [Compound 1076421] | 65
11 | 1074629 (antisense kG*kA*kG*dA*dT*dT*dT*dT*dA*dT*dG*d[5mC]*d[5mC]*kT*kG*kT) [Compound 1074629] | 3

Same assay, conditions: Table 20; Yap1 mRNA, percent of untreated control; 3-10-3 cEt gapmers targeting SEQ ID NO.: 1 and 2

Row | Substance | YAP1 (% UTC)
12 | 1074598 (antisense k[5mC]*kT*kT*dA*dT*dA*dG*dT*dA*dT*dT*d[5mC]*dT*kA*kT*k[5mC]) [Compound 1074598] | 46 % UTC
13 | 1075238 (antisense k[5mC]*kT*kT*dA*dA*dA*d[5mC]*dA*dG*dG*dT*dG*d[5mC]*k[5mC]*kA*kA) [Compound 1075238] | 24 % UTC
14 | 1074438 (kG*kA*k[5mC]*dA*dT*dG*dA*dA*dG*d[5mC]*dA*dT*d[5mC]*kT*kG*kA; antisense) [Compound 1074438] | 1* % UTC

Same assay, conditions: Table 21; Yap1 mRNA, percent of untreated control; 3-10-3 cEt gapmers targeting SEQ ID NO.: 1 and 2

Row | Substance | YAP1 (% UTC)
15 | 1074631 (antisense k[5mC]*kA*kT*dA*dG*d[5mC]*dA*dG*d[5mC]*dT*dT*dT*dT*kG*k[5mC]*k[5mC]) [Compound 1074631] | 9
16 | 1074503 (k[5mC]*kA*kA*d[5mC]*dT*dA*d[5mC]*dA*dA*dT*dA*dA*d[5mC]*k[5mC]*kA*kT; antisense) [Compound 1074503] | 29
17 | 1076487 (antisense kG*kT*kA*d[5mC]*dG*dA*dA*dA*d[5mC]*dG*dA*dA*dA*k[5mC]*kG*kG) [Compound 1076487] | 21
18 | 1074599 (antisense kG*k[5mC]*kT*dA*dA*d[5mC]*dT*d[5mC]*dA*dA*dA*dA*d[5mC]*k[5mC]*kT*kT) [Compound 1074599] | 12

Same assay, conditions: Table 22; Yap1 mRNA as percent of untreated control; 3-10-3 cEt gapmers; single dose

Row | Substance | YAP1 (% UTC)
19 | 1074888 (antisense kG*kT*kT*dT*dA*dG*d[5mC]*d[5mC]*dT*dG*dA*dA*dG*k[5mC]*kA*kA) [Compound 1074888] | 58 % UTC
20 | 1075784 (kA*kT*kT*dT*dT*dA*dT*dA*dG*dG*dG*d[5mC]*d[5mC]*kA*kT*kT; antisense) [Compound 1075784] | 3 % UTC
21 | 1074440 (kG*k[5mC]*kT*dG*dT*dG*dA*d[5mC]*dA*dT*dG*dA*dA*kG*k[5mC]*kA; antisense) [Compound 1074440] | 38* % UTC

Same assay, conditions: Table 23; Yap1 mRNA as percent of untreated control; 3-10-3 cEt gapmers; single dose

Row | Substance | YAP1 (% UTC)
22 | 1074505 (kA*kA*kT*d[5mC]*dG*dA*dG*dA*dT*dT*dT*dA*dA*kA*kT*kA; antisense) [Compound 1074505] | 83
23 | 1074985 (antisense kA*kA*kT*d[5mC]*dA*d[5mC]*d[5mC]*dT*dT*dT*dT*dA*dT*kT*kG*k[5mC]) [Compound 1074985] | 49
24 | 1075369 (kG*kG*kA*dG*dA*dA*dT*dA*dA*dG*d[5mC]*dA*dA*kT*k[5mC]*kA; antisense) [Compound 1075369] | 31
25 | 1076553 (antisense kT*kG*kG*dG*dA*dA*dT*dA*dA*dT*dT*dT*dG*kG*k[5mC]*k[5mC]) [Compound 1076553] | 69
26 | 1074249 (antisense kT*kG*kA*dT*d[5mC]*dG*dA*dT*dG*dT*dG*dA*dT*kT*kT*kA) [Compound 1074249] | 23

Same assay, conditions: Table 24; Yap1 mRNA as percent of untreated control; 3-10-3 cEt gapmers targeting SEQ ID NO.: 1, and 2

Row | Substance | YAP1 (% UTC)
27 | 1076106 (k[5mC]*kT*kA*d[5mC]*dG*dA*dA*dA*dT*dA*dG*dT*dA*kA*k[5mC]*kT; antisense) [Compound 1076106] | 77
28 | 1076266 (kA*kT*kT*dA*dT*dT*dA*d[5mC]*d[5mC]*d[5mC]*dA*dA*dT*kA*kA*k[5mC]; antisense) [Compound 1076266] | 72
29 | 1076170 (kA*kG*kT*dA*dA*dA*dG*dA*dG*dT*dA*d[5mC]*dT*kG*kT*kA; antisense) [Compound 1076170] | 16
30 | 1076490 (antisense k[5mC]*k[5mC]*kA*dA*dA*dA*dT*dA*dG*dG*dT*dG*dA*kG*kT*k[5mC]) [Compound 1076490] | 2

Same assay, conditions: Table 25; Yap1 mRNA as percent of untreated control; 3-10-3 cEt gapmers targeting SEQ ID NO.: 1, and 2

Row | Substance | YAP1 (% UTC)
31 | 1074187 (antisense k[5mC]*kT*kG*d[5mC]*dG*dA*dA*dG*dG*d[5mC]*dG*dG*d[5mC]*kT*kG*k[5mC]) [Compound 1074187] | 47
32 | 1075467 (antisense k[5mC]*kA*kT*dT*dA*dA*dT*dG*d[5mC]*d[5mC]*dA*dT*d[5mC]*k[5mC]*kA*kA) [Compound 1075467] | 60
33 | 1075019 (antisense k[5mC]*kA*kT*dT*dA*dG*dA*dG*dT*dT*dT*dG*dA*kT*kT*kA) [Compound 1075019] | 64
34 | 1075243 (antisense k[5mC]*kT*kT*dA*dG*dT*dA*dA*dG*dA*dA*dT*dT*kG*kT*k[5mC]) [Compound 1075243] | 4
35 | 1075563 (k[5mC]*k[5mC]*kA*dT*dA*dT*dA*dA*d[5mC]*d[5mC]*dA*dG*dT*kT*kT*kT; antisense) [Compound 1075563] | 12

Same assay, conditions: Table 32; Yap1 mRNA, percent of untreated control; 3-10-3 cEt gapmers targeting SEQ ID NO.: 1, and 2

Row | Substance | YAP1 (% UTC)
36 | 1075666 (antisense kA*kA*kA*dT*dT*dT*dA*dG*dT*dT*dG*dT*dG*k[5mC]*kA*k[5mC]) [compound 1075666] | 106
37 | 1074898 (antisense kA*kA*k[5mC]*dT*dT*dT*dT*dG*dG*dG*d[5mC]*dA*dA*kA*kG*kT) [compound 1074898] | 101
38 | 1074994 (antisense kA*kA*kA*d[5mC]*dT*dA*dA*dA*dT*dG*dG*dA*d[5mC]*k[5mC]*kG*kG) [compound 1074994] | 94
39 | 1075986 (kG*kA*kA*dT*dA*dT*d[5mC]*dG*dA*dA*dA*dA*dG*k[5mC]*kA*kA; antisense) [compound 1075986] | 26

Same assay, conditions: Table 33; Yap1 mRNA, percent of untreated control; 3-10-3 cEt gapmers targeting SEQ ID NO.: 1, and 2

Row | Substance | YAP1 (% UTC)
40 | 1075059 (antisense kA*kT*kT*dT*dA*d[5mC]*dT*dT*dT*dG*dG*dA*dT*kG*kT*k[5mC]) [compound 1075059] | 11
41 | 1074707 (antisense kT*kT*kT*dA*dA*dT*dG*dG*d[5mC]*dA*dG*d[5mC]*dA*k[5mC]*kG*kG) [compound 1074707] | 36
42 | 1075667 (antisense k[5mC]*kA*kA*dA*dT*dT*dT*dA*dG*dT*dT*dG*dT*kG*k[5mC]*kA) [compound 1075667] | 109

Same assay, conditions: Yap1 mRNA as percent of untreated control; A-431 cells; 3-10-3 cEt gapmers targeting SEQ ID NO.: 1, and 2; Table 31

Row | Substance | YAP1 (% UTC)
43 | 1074769 (kT*k[5mC]*kT*dT*dA*dT*d[5mC]*d[5mC]*d[5mC]*dA*dA*dT*dG*k[5mC]*kT*kA; antisense) [compound 1074769] | 12
44 | 1075441 (antisense kG*kA*kA*dT*dT*dA*dA*dA*dG*d[5mC]*dA*dG*dT*kG*k[5mC]*k[5mC]) [compound 1075441] | 24
45 | 1074673 (antisense kA*kG*kG*d[5mC]*dA*d[5mC]*dT*d[5mC]*d[5mC]*dT*dT*d[5mC]*d[5mC]*kA*kA*kG) [compound 1074673] | 43
46 | 1074993 (antisense kT*k[5mC]*kT*dA*dA*dT*d[5mC]*dA*dA*d[5mC]*dA*d[5mC]*dT*kG*kG*kA) [compound 1074993] | 65
